US20220265657A1, “ADMINISTRATION METHOD AND DOSAGE REGIMEN FOR TREATMENT OF NEURODEGENERATIVE DISEASES USING TRAMETINIB AND MARKERS” (GENUV INC., priority 2019, published 2022)

How the values were obtained:
[1] = tested on: MEK1/2; assay: Western blot of pERKs and ERKs in whole brain lysates of normal mice; assay type: in vivo; details: 0.1 mg/kg/day oral
Procedure: (§1) Trametinib treatment: Trametinib (Medchemexpress, Monmouth Junction, N.J.) was micronized and suspended in the vehicle containing 5% mannitol, 1.5% hydroxypropyl methylcellulose and 0.2% sodium lauryl sulfate. For pharmacokinetic analysis, 0.05, 0.2 and 0.8 mg/kg of trametinib were orally administered to 7-week-old normal mice (ICR, n=5 per group) as a single administration. […] For studies on the change in pERK expression in normal mice and whole cell RNA sequencing study, 0.1 mg/kg/day of trametinib (in 4% DMSO+96% corn oil) was orally administered to 6-week old C57BL/6 mice (n=3 per group). Mice were sacrificed after 1, 2, 3, or 4 weeks of administration. 5XFAD mice (male, n=7˜10 per group) were divided into vehicle and trametinib treated groups. 12-month old mice received vehicle or 0.1 mg/kg of trametinib for 1 month by oral gavage once a day (These mice are referred to as “13-month old 5XFAD mice” in the Examples). […] Blood was obtained after completion of treatment.
Lysates were centrifuged at 13,000 rpm for 20 min at 4° C., and the protein content in the supernatant was determined using the Bradford assay (Bio-rad, Hercules, Calif.). For subcellular fractionation, cells were lysed with lysis buffer (250 mM Sucrose, 20 mM HEPES, pH 7.4, 10 mM KCl, 1.5 mM MgCl2, 1 mM EGTA, 1 mM EDTA, 1 mM DTT) containing protease inhibitor for 30 min on ice, followed by centrifugation at 720 g for 5 min at 4° C. Supernatants were centrifuged at 15,000 rpm for 10 min at 4° C., and the resulting supernatant was used as the cytosol fraction. After centrifugation at 720 g for 5 min, pellets were washed with lysis buffer and dissolved in nuclear lysis buffer (50 mM Tris HCl, pH 8.0, 150 mM NaCl, 1% NP40, 0.5% sodium deoxycholate, 0.1% SDS, 10% glycerol) as the nuclear fraction. Protein from each sample was subjected to 8%˜15% SDS-PAGE, and the resolved proteins were transferred to nitrocellulose or polyvinylidene fluoride membrane. The membranes were blocked with 5% nonfat milk powder in Tris-buffered saline/Tween 20 (TBST) for 1 h at room temperature, then incubated with anti-phospho-ERK (Cell signaling), anti-ERK (Cell signaling), anti-LAMP1 (Abcam), anti-LC3 (Cell signaling), anti-cathepsin B (Cell signaling), anti-p62 (Cell signaling), anti-p62 (5114, Cell signaling), anti-phospho-mTOR (5536, Cell signaling), anti-mTOR (2983, Cell signaling), anti-phospho-ULK1 (14202, Cell signaling), anti-ULK1 (8054, Cell signaling), anti-TFEB (852501, Biolegend), and anti-GAPDH (Cell signaling) overnight at 4° C. After washing, membranes were incubated with horseradish peroxidase-conjugated goat anti-rabbit IgG antibody (Thermo) or goat anti-rat IgG antibody (Thermo) for 2 h at room temperature. […] The detected signals were quantified using a LAS-4000 system (Fuji Film, Tokyo, Japan).

[2] = tested on: whole brains of normal mice; assay: Bulk RNA-Seq of whole brains of normal mice; assay type: in vivo; details: FC ≥1.3, FDR <0.05
Procedure: as §1
Whole cell RNA sequencing: RNA was isolated from mice whole brain, and cDNA libraries for RNA sequencing were prepared using the TruSeq Stranded mRNA Prep Kit (Illumina, San Diego, Calif.) according to the manufacturer's guidelines (1). The libraries were sequenced on the Illumina Nextseq500 platform, and the reads were mapped to the reference Mouse mm10 genome using Tophat v2.0.13. […] To define differentially expressed genes (DEG), we set up a stringent statistic cutoff of fold change (FC) of ≥1.3 and a false discovery rate (FDR)<0.05. […] Gene ontology was performed with the Gene Ontology program of the gene ontology consortium. Heatmap analysis was performed by R studio using the DEG list related with synapse, neurogenesis and lysosome.

[3] = tested on: 5XFAD mice; assay: Behavioral studies: Y-maze and novel object recognition tests; assay type: in vivo
Procedure: as §1

[4] = tested on: primary cortical neurons; assay: Dendritic spine formation in primary cortical neurons; assay type: cell-based, ICR mice
Procedure: Cell culture: SH-SY5Y neuroblastoma cells were cultured at 37° C., 5% CO2., in Dulbecco's Modified Eagle Medium/Ham's F-12 nutrient mixture (DMEM/F12) (Invitrogen, Carlsbad, Calif.) supplemented with 10% heat-inactivated fetal bovine serum containing 100 units/ml penicillin, 100 μg/ml streptomycin. Primary cortical neuron cultures were derived from embryo day 18 (E18) from ICR mice. The dissociated cells were plated on glass cover slips coated with poly-D-lysine in Neurobasal medium supplemented with 2% B27 (Invitrogen), 100 units/ml penicillin, 100 μg/ml streptomycin, and 2 mM L-glutamine. Primary NSCs from normal mice were isolated from the subventricular zone (SVZ) of 8 week-old C57BL/6 mice brain. NSCs from adult Tg2576 mice brain were obtained from Seoul National University Hospital. The neurospheres were cultured as previously described (M. Y. Kim, B. S. Moon, K. Y. Choi, Isolation and maintenance of cortical neural progenitor cells in vitro. Methods Mol Biol 1018, 3-10 (2013)). For neurosphere culture from normal mice, the cells were dissociated from brain tissue and grown in N2 medium in 25 cm^2 flasks (SPL, Gyeonggi-do, Korea) in suspension. bFGF (20 ng/ml, Peprotech, Princeton, N.J.) and human EGF (20 ng/ml, Peprotech) were added to the media to allow the cells to form neurospheres. For analyses, NSCs were cultured as a monolayer. For differentiation of NSCs, the neurospheres were dissociated with TrypLE (Invitrogen), plated on 15 μg/ml poly-L-ornithine-(Sigma-Aldrich, St. Louis, Mo.) and 10 μg/ml fibronectin (Gibco)-coated plates, and cultured in bFGF- and EGF-depleted N2 medium for 2 days. For neurosphere culture from Tg2576 mice, the cells were grown in DMEM/F12 supplemented with B27 supplements in 75 cm^2 flasks (SPL) in suspension. bFGF (10 ng/ml) and human EGF (10 ng/ml) were added to the media to allow the cells to form neurospheres. […]

[5] = tested on: 5XFAD mice; assay: Immunofluorescence of active caspase 3, LC3 and LAMP1 in cortex layer V; assay type: in vivo; details: 5XFAD mice cortex
Procedure: as §1
Brains were dissected and analyzed by immunohistochemistry. For paraffin sections, brain hemispheres were embedded sagittally in paraffin and prepared into sections of […] slices. […] The sections were counterstained with DAPI. […] NeuN-positive and active caspase 3-positive cells from cortex layer V were counted using Icy micromanager program (Institut Pasteur, Paris, France).

Q: For `CC(=O)Nc1cccc(-n2c(=O)n(C3CC3)c(=O)c3c(Nc4ccc(I)cc4F)n(C)c(=O)c(C)c32)c1` [trametinib], which “decrease of p-ERKs/ERKs ratio compared to vehicle treated group” value (“decrease of p-ERKs/ERKs ratio” below) ([1]; 1 week administration) is on record?
A: 22.5%

Q: What about the “decrease of p-ERKs/ERKs ratio” value ([1]; 2 week administration) of the same molecule?
A: 33.7%

Q: And the “decrease of p-ERKs/ERKs ratio” value ([1]; 3 week administration)?
A: 50%

Q: And the “decrease of p-ERKs/ERKs ratio” value ([1]; 4 week administration)?
A: 45.6%

Q: And the “number of differentially expressed genes (DEGs) between vehicle and trametinib group” value (from here on “number of differentially expressed genes”) ([2]; first week)?
A: 500

Q: And the “number of differentially expressed genes” value ([2]; fourth week)?
A: 538

Q: What about the “number of differentially expressed genes” value ([2]; second week) of the same molecule?
A: 498

Q: And the “number of differentially expressed genes” value ([2]; third week)?
A: 446

Q: What about the “memory formation in Y-maze and novel object recognition tests” value [3] of the same molecule?
A: recovery of memory formation

Q: What about the “increase in number of dendritic spines compared to vehicle treated group” value ([4]; 100 nM) of the same molecule?
A: 24%

Q: And the “increase in number of dendritic spines compared to Aβ1-42 treated alone group” value ([4]; Aβ1-42 oligomer-induced neurotoxic conditions)?
A: 80%

Q: And the LC3-LAMP1 co-stained cells [5]?
A: Increased LC3-LAMP1 co-stained cells

Q: What about the “apoptosis (active caspase 3)” value [5] of the same molecule?
A: reduced apoptosis
